US20260265249A1, “PHARMACEUTICALLY ACCEPTABLE SALT AND CRYSTAL FORM OF 1,4-DIHYDRO-1,6-NAPHTHYRIDINE AMIDE COMPOUND AND PREPARATION METHOD THEREFOR” (JIANGSU HENGRUI PHARMACEUTICALS CO., LTD., priority 2023, published 2026)
Each block holds one molecule with its values, some of them ahead of it.

Key:
[1] = DVS (dynamic vapor sorption) hygroscopicity test; format: physicochemical
Text: According to the description of hygroscopicity characteristics and the definitions of hygroscopic weight gains in “General Rule 9103, Guidelines for Hygroscopicity” in the Chinese Pharmacopoeia, Volume IV, 2015 Edition, • deliquescent: sufficient water is absorbed to form a liquid; • extremely hygroscopic: the hygroscopic weight gain is not less than 15%; • hygroscopic: the hygroscopic weight gain is less than 15% but not less than 2%; • slightly hygroscopic: the hygroscopic weight gain is less than 2% but not less than 0.2%; • nonhygroscopic or practically nonhygroscopic: the hygroscopic weight gain is less than 0.2%.
TGA refers to thermogravimetric analysis: The analysis was performed using a METTLER TOLEDO TGA 2 thermogravimetric analyzer, with a temperature ramp rate of 10° C./min, specific temperature ranges shown in corresponding patterns (mostly 30-350° C.), and a nitrogen purge speed of 50 mL/min. DVS refers to dynamic vapor sorption: The analysis was performed using SMS DVS Advantage; at 25° C., the humidity was changed as follows: 50%-95%-0%-95%-50%, in steps of 10% (5% for the last step) (specific humidity ranges are shown in corresponding patterns, and those listed here were used in most cases); the criterion was dm/dt being not greater than 0.002%.

[2] = Long-term/accelerated stability study (sealed in aluminum foil bags, 25° C./60% RH and 40° C./75% RH); format: physicochemical; conditions: for long-term/accelerated stability (conclusion): storage under long-term accelerated conditions for 6 months
[3] = Influencing factor stability study (open containers; light, high temperature, high humidity; 30 days); format: physicochemical
[4] = tested on: db/db mice (idiopathic type II diabetes model mice); test: Efficacy test in db/db mouse model with diabetic nephropathy; format: in vivo; conditions: for mALB compared to the model control group / urine albumin-to-creatinine ratio (UACR) compared to the model control group / urine amount compared to the model control group: after 4 weeks of administration, in words; for UACR / Urine creatinine / Urine weight / mALB: db/db mice, 15 mg/kg i.g. once daily, Mean±SEM
Text: Test Example 2: Efficacy Test in db/db Mouse Model with Diabetic Nephropathy
Thirty db/db mice (idiopathic type II diabetes model mice) were selected and divided into a model control group, a positive control group, and a treatment group, and 10 db/m mice were selected as a control group.
The mice were given the compounds by oral gavage (i.g) once daily over 4 consecutive weeks. The administration information is shown in detail in Table 2.
Urine albumin was used as a main measure. The data obtained were analyzed statistically using EXCEL and IBM SPSS Statistics 22.0.
All metrology data are expressed as Mean±SEM s. The parameters before and after administration were plotted for the different groups of animals using the software Graph Pad Prism 8. Data were analyzed using the statistical software SPSS 22.0. A Levene's test of homogeneity of variance was performed on the parameters. When the variance was homogenous (P≥0.05), the Dunnett's & LSD method from the one-way analysis of variance (ANOVA) was used to compare the differences between the groups. When the variance was not homogenous (P<0.05), the Mann-Whitney U test (the M-W method) from the Kruskal-Wallis H test (the K-W method) was used to compare the differences between the groups. For animal survival, the log-rank test from the product-limit method (the K-M method) was used to compare the differences between the groups.

[5] = accelerated experimental conditions, 70% RH
[6] = normal storage conditions, 25° C. and 60% RH
[7] = 25° C.-60% RH, sealed aluminum foil bag, 1 month
[8] = 25° C.-60% RH, sealed aluminum foil bag, 2 months
[9] = 25° C.-60% RH, sealed aluminum foil bag, 3 months
[10] = 25° C.-60% RH, sealed aluminum foil bag, 6 months
[11] = 40° C.-75% RH, sealed aluminum foil bag, 1 month
[12] = 40° C.-75% RH, sealed aluminum foil bag, 2 months
[13] = 40° C.-75% RH, sealed aluminum foil bag, 3 months
[14] = 40° C.-75% RH, sealed aluminum foil bag, 6 months
[15] = sealed aluminum foil bag, 25° C.-60% RH, 1 month
[16] = sealed aluminum foil bag, 25° C.-60% RH, 2 months
[17] = sealed aluminum foil bag, 25° C.-60% RH, 3 months
[18] = sealed aluminum foil bag, 25° C.-60% RH, 6 months
[19] = sealed aluminum foil bag, 40° C.-75% RH, 1 month
[20] = sealed aluminum foil bag, 40° C.-75% RH, 2 months
[21] = sealed aluminum foil bag, 40° C.-75% RH, 3 months
[22] = sealed aluminum foil bag, 40° C.-75% RH, 6 months
[23] = open container, 40° C., 1 month
[24] = open container, 40° C., 14 days
[25] = open container, 60° C., 1 month
[26] = open container, 60° C., 14 days
[27] = open container, 75% RH, 1 month
[28] = open container, 75% RH, 14 days
[29] = open container, 92.5% RH, 1 month
[30] = open container, 92.5% RH, 7 days
[31] = open container, 92.5% RH, 14 days
[32] = open container, light exposure (4500 Lux), 1 month
[33] = open container, light exposure (4500 Lux), 7 days
[34] = open container, light exposure (4500 Lux), 14 days
[35] = 4 weeks, ** P<0.01 vs model control group

SMILES: [2H]C([2H])([2H])Oc1cc(C#N)ccc1[C@@H]1C(C(N)=O)=C(C)Nc2c(C)cnc(OCC)c21 [crystal form A]
hygroscopic weight gain [1, 5]: about 0.7%
crystal form re-identified after the DVS test [1]: did not change
hygroscopic weight gain ([1]; extreme conditions, 90% RH): about 1.5%
hygroscopic weight gain [1, 6]: about 0.5%
Crystal form ([2]; 0 days): Crystal form A
Purity ([2]; 0 days): 99.7%
Crystal form [2, 15]: No change
Purity [2, 15]: 99.7%
Crystal form [2, 16]: No change
Purity [2, 16]: 99.7%
Crystal form [2, 17]: No change
Purity [2, 17]: 99.7%
Crystal form [2, 18]: No change
Purity [2, 18]: 99.7%
Crystal form [2, 19]: No change
Purity [2, 19]: 99.7%
Crystal form [2, 20]: No change
Purity [2, 20]: 99.6%
Crystal form [2, 21]: No change
Purity [2, 21]: 99.6%
Crystal form [2, 22]: No change
Purity [2, 22]: 99.5%
long-term/accelerated stability (conclusion) [2]: good physical and chemical stability
Crystal form ([3]; 0 days): Crystal form A
Purity ([3]; 0 days): 99.7%
Crystal form [3, 23]: No change
Purity [3, 23]: 99.4%
Crystal form ([3]; open container, 40° C., 7 days): No change
Purity ([3]; open container, 40° C., 7 days): 99.6%
Crystal form [3, 24]: No change
Purity [3, 24]: 99.6%
Crystal form [3, 25]: No change
Purity [3, 25]: 99.4%
Crystal form ([3]; open container, 60° C., 7 days): No change
Purity ([3]; open container, 60° C., 7 days): 99.7%
Crystal form [3, 26]: No change
Purity [3, 26]: 99.6%
Crystal form [3, 27]: No change
Purity [3, 27]: 99.7%
Crystal form ([3]; open container, 75% RH, 7 days): No change
Purity ([3]; open container, 75% RH, 7 days): 99.6%
Crystal form [3, 28]: No change
Purity [3, 28]: 99.7%
Crystal form [3, 29]: No change
Purity [3, 29]: 99.7%
Crystal form [3, 30]: No change
Purity [3, 30]: 99.6%
Crystal form [3, 31]: No change
Purity [3, 31]: 99.7%
Crystal form [3, 32]: No change
Purity [3, 32]: 97.6%
Crystal form [3, 33]: No change
Purity [3, 33]: 99.4%
Crystal form [3, 34]: No change
Purity [3, 34]: 99.1%
stability in the influencing factor experiment (conclusion) ([3]; under other conditions (40° C., 60° C., 75% RH, 92.5% RH)): stable
stability in the influencing factor experiment (conclusion) ([3]; under the light exposure condition): degraded

SMILES: CCOc1ncc(C)c2c1[C@H](c1ccc(C#N)cc1OC)C(C(N)=O)=C(C)N2 [Finerenone, reference compound]
mALB compared to the model control group [4]: tended to be lower
urine albumin-to-creatinine ratio (UACR) compared to the model control group [4]: decreased somewhat but is not significantly different
urine amount compared to the model control group [4]: tended to be lower
UACR ([4]; 0 weeks): 5538.19 ± 342.61 µg/mg
Urine creatinine ([4]; 0 weeks): 0.37 ± 0.02 μmol/24 h
Urine weight ([4]; 0 weeks): 2.86 ± 0.17 mL
mALB ([4]; 0 weeks): 226.68 ± 13.90 μg/24 h
Urine creatinine ([4]; 4 weeks): 2.11 ± 0.44 μmol/24 h
Urine weight ([4]; 4 weeks): 11.96 ± 2.89 mL
mALB ([4]; 4 weeks): 1,013.76 ± 245.40 μg/24 h
UACR [4, 35]: 4294.14 ± 464.95 µg/mg

SMILES: [2H]C([2H])([2H])Oc1cc(C#N)ccc1[C@@H]1C(C(N)=O)=C(C)Nc2c(C)cnc(OCC)c21 [Compound 1]
mALB compared to the model control group [4]: tended to be lower
urine albumin-to-creatinine ratio (UACR) compared to the model control group [4]: statistically significantly smaller
urine amount compared to the model control group [4]: tended to be lower
UACR ([4]; 0 weeks): 5039.91 ± 334.27 µg/mg
Urine creatinine ([4]; 0 weeks): 0.40 ± 0.01 μmol/24 h
Urine weight ([4]; 0 weeks): 2.72 ± 0.14 mL
mALB ([4]; 0 weeks): 224.72 ± 13.19 μg/24 h
Urine creatinine ([4]; 4 weeks): 2.23 ± 0.39 μmol/24 h
Urine weight ([4]; 4 weeks): 10.41 ± 2.29 mL
mALB ([4]; 4 weeks): 870.27 ± 189.40 μg/24 h
UACR [4, 35]: 3301.13 ± 330.31** μg/mg

Results, then the molecule that gave them:

hygroscopic weight gain [1, 5]: about 13.7%
crystal form re-identified after the DVS test [1]: did not change
hygroscopic weight gain ([1]; extreme conditions, 90% RH): about 37.5%
hygroscopic weight gain [1, 6]: about 3.6%
Purity (%) ([2]; 0 days (initial)): 99.8%
Crystal form [2, 7]: No change
Purity (%) [2, 7]: 99.3%
Crystal form [2, 8]: No change
Purity (%) [2, 8]: 99.3%
Crystal form [2, 9]: No change
Purity (%) [2, 9]: 99.3%
Crystal form [2, 10]: No change
Purity (%) [2, 10]: 99.3%
Crystal form [2, 11]: No change
Purity (%) [2, 11]: 99.2%
Crystal form [2, 12]: No change
Purity (%) [2, 12]: 98.9%
Crystal form [2, 13]: No change
Purity (%) [2, 13]: 98.8%
Crystal form [2, 14]: No change
Purity (%) [2, 14]: 98.8%
long-term/accelerated stability (conclusion) [2]: good physical and chemical stability
SMILES: Cl.[2H]C([2H])([2H])Oc1cc(C#N)ccc1[C@@H]1C(C(N)=O)=C(C)Nc2c(C)cnc(OCC)c21 [crystal form I of hydrochloride]

Purity (%) ([2]; 0 days (initial)): 99.6%
Crystal form [2, 7]: No change
Purity (%) [2, 7]: 99.8%
Crystal form [2, 8]: No change
Purity (%) [2, 8]: 99.8%
Crystal form [2, 9]: No change
Purity (%) [2, 9]: 99.8%
Crystal form [2, 10]: No change
Purity (%) [2, 10]: 99.6%
Crystal form [2, 11]: No change
Purity (%) [2, 11]: 99.6%
Crystal form [2, 12]: No change
Purity (%) [2, 12]: 99.5%
Crystal form [2, 13]: No change
Purity (%) [2, 13]: 99.3%
Crystal form [2, 14]: No change
Purity (%) [2, 14]: 98.8%
long-term/accelerated stability (conclusion) [2]: good physical and chemical stability
Crystal form ([3]; 0 days): Crystal form α of maleate
Purity ([3]; 0 days): 99.6%
stability in the influencing factor experiments (conclusion) ([3]; at a high temperature): slightly degraded
Crystal form [3, 23]: No change
Purity [3, 23]: 97.4%
Crystal form ([3]; open container, 40° C., 7 days): No change
Purity ([3]; open container, 40° C., 7 days): 98.9%
Crystal form [3, 24]: No change
Purity [3, 24]: 98.4%
Crystal form [3, 25]: No change
Purity [3, 25]: 92.2%
Crystal form ([3]; open container, 60° C., 7 days): No change
Purity ([3]; open container, 60° C., 7 days): 98.6%
Crystal form [3, 26]: No change
Purity [3, 26]: 97.0%
Crystal form [3, 27]: No change
Purity [3, 27]: 99.8%
Crystal form ([3]; open container, 75% RH, 7 days): No change
Purity ([3]; open container, 75% RH, 7 days): 99.8%
Crystal form [3, 28]: No change
Purity [3, 28]: 99.8%
Crystal form [3, 29]: No change
Purity [3, 29]: 99.8%
Crystal form [3, 30]: No change
Purity [3, 30]: 99.8%
Crystal form [3, 31]: No change
Purity [3, 31]: 99.8%
Crystal form [3, 32]: No change
Purity [3, 32]: 98.2%
Crystal form [3, 33]: No change
Purity [3, 33]: 99.2%
Crystal form [3, 34]: No change
Purity [3, 34]: 98.7%
SMILES: O=C(O)/C=C\C(=O)O.[2H]C([2H])([2H])Oc1cc(C#N)ccc1[C@@H]1C(C(N)=O)=C(C)Nc2c(C)cnc(OCC)c21 [crystal form α of maleate]
